Experimental data as given in patent publication US9307761B2, “Microbial composition” (Rohm and Haas Company, priority 2011, dated 2016).
Where two headings read alike, the source gives them in different places.

How the values were obtained:
Format in all cases: cell-based
[1] = system: Escherichia coli (E. coli—ATCC #10536); assay: Automated assessment of efficacy in model surfactant medium (2.85% sodium cocoyl glycinate and 1.85% sodium lauroamphoacetate), 15 seconds exposure, delta OD450/OD590; details: for No. of replicates showing growth (out of 4) / Δ OD 450 nm = OD450 (time = 16 hours) − OD450 (time zero), Mean / Δ OD 590 nm OD590 (time = 16 hours) − OD590 (time zero), Mean: model surfactant solution, 15 s exposure; for MBC: Escherichia coli, ATCC10536, 15 s, in 2.85% sodium cocoyl glycinate + 1.85% sodium lauroamphoacetate solution at pH 10, E. coli, read-out: MBC (minimum biocidal concentration)
Method: Micobiocidal Activity of Actives as Per the Invention in a Model Surfactant Medium Test Methodology for Automated Assessment of Efficacy in Surfactant Base
Solutions were prepared such that the concentrations of the surfactant components and test actives were 1.1×the final desired concentration in order to allow for dilution with the bacterial inoculum in the test. The solutions were manually adjusted to […] by dropwise addition of sodium hydroxide solution, as measured with a pH meter at ambient temperature.
Tests were conducted using standard microtiter plate assays using an automated liquid handling system, 270 μl of the surfactant test solution was pipetted into each well of the microtitre plate and 30 μl of the bacterial suspension was then added. After exactly 15 seconds of bacterial exposure, a 30 μl volume of bacterial cells was withdrawn and transferred to 270 μl of D/E quench solution. After 5 minutes in the D/E quench, the optical density (OD) was measured for each plate in turn at two specific wavelengths (450 nm and 590 nm). These provide a dual check of antimicrobial activity, as the OD450 reading is specific for the yellow colour of D/E quench when bacterial growth is observed, whereas OD590 is specific for the initial purple colour of the D/E quench which is retained if no bacterial growth is observed. After the time zero OD measurements, plates were then incubated at 37° C. overnight (16 hours) before repeating the OD measurements. Delta OD values were calculated by subtracting […]. Bacterial growth is observed as art increase in OD450 and a decrease in ΔOD590. To identify antibacterially efficacious systems (those preventing appreciable bacterial growth after incubation), the following threshold changes in OD readings have been adopted: if (1). OD450 increases by less than 0.2 absorbance unit on incubation and (2). OD590 decreases by less than 0.35 unit on incubation. Conversely, where OD450 increases by more than 0.2 AU and OD590 decreases by more than 0.35 unit after incubation, corresponding to a colour shift from purple to yellow, the test system allows bacterial growth and is not deemed efficacious, four replicate measurements in the same plate have been made for each test system. The number of replicate wells showing either bacterial growth or no growth is also readily assessed by eye by following the colour change.
Dose responses for individual components and binary mixtures of actives at a fixed concentration ratio were generated by sequential dilution of liquors with further surfactant solution to obtain a series of endpoints.
In some selected cases, the combinations were also tested at the weight ratio 1:1.

[2] = system: Escherichia coli (10536 strain); assay: 15 seconds contact kill assay of actives in water, mean bacterial survival NMBS; details: for NMBS: alone, 15 seconds contact
[3] = system: Escherichia coli (E. coli—ATCC #10536); assay: Synergy tests: high resolution MBC microtiter plate assay, 15 seconds contact, phosphate buffer containing […] dipropylene glycol; details: for MBC of the component acting alone (QA or QB): complete kill in 15 seconds
Description: The concentrations and ratios may also vary under different test conditions or with different test methods.
One measure of synergy is the industrially accepted method described by Kull, F. C.; Eisman, P. C.; Sylwestrowicz, H. D. and Mayer, R. L., in Applied Microbiology 9:538-541 (1961), using the ratio determined by the formula: Qa/QA+Qb/QB=Synergy Index (“SI”) wherein: • QA=concentration of compound A (first component) in percent, acting alone, which produced an end point (MBC of Compound A). • Qa=concentration of compound A in percent, in the mixture, which produced an end point. • QB=concentration of compound B (second component) in percent, acting alone, which produced an end point (MBC of Compound B). • Qb=concentration of compound B in percent, in the mixture, which produced an end point.
When the sum of Qa/QA and Qb/QB is greater than one, antagonism is indicated. […] The lower the SI, the greater is the synergy shown by that particular mixture. The minimum biocidal concentration (MBC) of a microbicide is the lowest concentration tested under a specific set of conditions that provides complete kill of the tested microorganisms.
Synergy tests were conducted using standard microtiter plate assays with phosphate buffer containing 3.5% dipropylene glycol (DPG). In this method, a wide range of combinations of chemicals was tested by conducting high resolution MBC assays of Component (A) in the presence of various concentrations of Component (B). High resolution MBCs were determined by adding varying amounts of microbicide to one column of a microtiter plate and doing subsequent […] dilutions using an automated liquid handling system to obtain a series of closely spaced endpoints. The MBC plate was inoculated one column at a time with the test microorganism. An aliquot of the inoculated well was transferred at 15 seconds to a plate containing a neutralizing agent (D/E Neutralizing Broth), mixed and held for 5 minutes before being transferred to a growth plate containing trypticase soy broth (TSB). The TSB plate was incubated at 37° C. and read for the presence/absence of growth at 24 hours. The lowest level tested that provided complete kill (as evidenced by no growth in the microtitre plate) of the test organisms in 15 seconds is the minimum biocidal concentration (MBC).
The synergy of the combinations of the present invention was determined against a bacterium, Escherichia coli (E. coli—ATCC #10536), at a concentration of approximately 1×10^8 bacteria, per mL. This microorganism is representative of natural contaminants in many consumer and industrial applications.

[4] = single active alone at 0.1% w/v
[5] = single active alone at 0.2% w/v
[6] = E. coli 10536, at Qa and Qb, <1 synergy, 1 additivity, >1 antagonism
[7] = single active alone at 0.3% w/v

CCCCc1ccc(O)cc1 [4-butylphenol]
No. of replicates showing growth (out of 4) [1, 4]: 4
Δ OD 450 nm = OD450 (time = 16 hours) − OD450 (time zero), Mean [1, 4]: −0.61
Δ OD 590 nm OD590 (time = 16 hours) − OD590 (time zero), Mean [1, 4]: 0.53
No. of replicates showing growth (out of 4) [1, 5]: 4
Δ OD 450 nm = OD450 (time = 16 hours) − OD450 (time zero), Mean [1, 5]: −0.54
Δ OD 590 nm OD590 (time = 16 hours) − OD590 (time zero), Mean [1, 5]: 0.58
No. of replicates showing growth (out of 4) ([1]; single active alone at […] w/v): 4
Δ OD 450 nm = OD450 (time = 16 hours) − OD450 (time zero), Mean ([1]; single active alone at […] w/v): −0.58
Δ OD 590 nm OD590 (time = 16 hours) − OD590 (time zero), Mean ([1]; single active alone at […] w/v): 0.54

Cc1cc(O)ccc1C(C)C [4-isopropyl-3-methylphenol]
No. of replicates showing growth (out of 4) ([1]; single active alone at […] w/v): 4
Δ OD 450 nm = OD450 (time = 16 hours) − OD450 (time zero), Mean ([1]; single active alone at […] w/v): −1.53
Δ OD 590 nm OD590 (time = 16 hours) − OD590 (time zero), Mean ([1]; single active alone at […] w/v): 0.23

CCCCc1ccc(O)cc1 [4-n-butyl phenol]
MBC of phenolic compound ([2]; phenolic compound alone, complete bacterial kill against E. coli): 0.25 % (w/v)

CCCCc1ccc(O)cc1 [4-n-butylphenol]
NMBS ([2]; 0.0125% w/v, E. coli): 7.85 log CFU/ml
MBC (minimum biocidal concentration) ([2]; E. coli, in water, component alone): 0.25 % w/v
NMBS ([2]; […] w/v, E. coli): 0 log CFU/ml
MBC of the component acting alone (QA or QB) ([3]; E. coli 10536): 0.2 weight %
MBC [1]: > 2000 µg/mL

CCCc1ccc(O)cc1 [4-propylphenol]
SI (Synergy Index = Qa/QA + Qb/QB) [3, 6]: 1.00
No. of replicates showing growth (out of 4) [1, 4]: 4
Δ OD 450 nm = OD450 (time = 16 hours) − OD450 (time zero), Mean [1, 4]: −1.59
Δ OD 590 nm OD590 (time = 16 hours) − OD590 (time zero), Mean [1, 4]: 0.34
No. of replicates showing growth (out of 4) [1, 5]: 4
No. of replicates showing growth (out of 4) ([1]; single active alone at […] w/v): 4

CCC(C)c1ccc(O)cc1 (stereo not drawn) [4-sec-butylphenol]
SI (Synergy Index = Qa/QA + Qb/QB) [3, 6]: 1.00

Cc1ccc(C(C)C)cc1O [5-isopropyl-2-methylphenol]
SI (Synergy Index = Qa/QA + Qb/QB) [3]: 1.00
No. of replicates showing growth (out of 4) [1, 4]: 4
Δ OD 450 nm = OD450 (time = 16 hours) − OD450 (time zero), Mean [1, 4]: −0.52
Δ OD 590 nm OD590 (time = 16 hours) − OD590 (time zero), Mean [1, 4]: 0.62
No. of replicates showing growth (out of 4) [1, 5]: 4
Δ OD 450 nm = OD450 (time = 16 hours) − OD450 (time zero), Mean [1, 5]: −0.52
Δ OD 590 nm OD590 (time = 16 hours) − OD590 (time zero), Mean [1, 5]: 0.62
No. of replicates showing growth (out of 4) ([1]; single active alone at […] w/v): 4

C/C=C/c1ccccc1O [(E)-2-(prop-1-enyl)phenol]
SI (Synergy Index = Qa/QA + Qb/QB) [3, 6]: 1.00
MBC of the component acting alone (QA or QB) ([3]; E. coli 10536): 0.8 weight %
No. of replicates showing growth (out of 4) [1, 4]: 4
Δ OD 450 nm = OD450 (time = 16 hours) − OD450 (time zero), Mean [1, 4]: −0.60
Δ OD 590 nm OD590 (time = 16 hours) − OD590 (time zero), Mean [1, 4]: 0.59
No. of replicates showing growth (out of 4) [1, 5]: 4
Δ OD 450 nm = OD450 (time = 16 hours) − OD450 (time zero), Mean [1, 5]: −0.53
Δ OD 590 nm OD590 (time = 16 hours) − OD590 (time zero), Mean [1, 5]: 0.63
No. of replicates showing growth (out of 4) ([1]; single active alone at […] w/v): 4
Δ OD 450 nm = OD450 (time = 16 hours) − OD450 (time zero), Mean ([1]; single active alone at […] w/v): −0.57
Δ OD 590 nm OD590 (time = 16 hours) − OD590 (time zero), Mean ([1]; single active alone at […] w/v): 0.58

C=C(C)[C@@H]1CC=C(CO)CC1 [(S)-(−) perillyl alcohol]
No. of replicates showing growth (out of 4) [1, 5]: 4
Δ OD 450 nm = OD450 (time = 16 hours) − OD450 (time zero), Mean [1, 5]: −1.44
Δ OD 590 nm OD590 (time = 16 hours) − OD590 (time zero), Mean [1, 5]: 0.36
No. of replicates showing growth (out of 4) [1, 7]: 4
Δ OD 450 nm = OD450 (time = 16 hours) − OD450 (time zero), Mean [1, 7]: −1.15
Δ OD 590 nm OD590 (time = 16 hours) − OD590 (time zero), Mean [1, 7]: 0.56
No. of replicates showing growth (out of 4) ([1]; single active alone at […] w/v): 1
Δ OD 450 nm = OD450 (time = 16 hours) − OD450 (time zero), Mean ([1]; single active alone at […] w/v): −0.18
Δ OD 590 nm OD590 (time = 16 hours) − OD590 (time zero), Mean ([1]; single active alone at […] w/v): 0.19

CC1CCC(CO)C(C)C1 (stereo not drawn) [dihydrofloralol, 2,4-Dimethylcyclohexylmethanol]
NMBS ([2]; 0.3% w/v, E. coli): 6.18 log CFU/ml
NMBS ([2]; 0.4% w/v, E. coli): 3.97 log CFU/ml
NMBS ([2]; 0.5% w/v, E. coli): 0.00 log CFU/ml
MBC [1]: 4000 µg/mL
No. of replicates showing growth (out of 4) [1, 5]: 4
Δ OD 450 nm = OD450 (time = 16 hours) − OD450 (time zero), Mean [1, 5]: −1.39
Δ OD 590 nm OD590 (time = 16 hours) − OD590 (time zero), Mean [1, 5]: 0.41
